Laboratory results published in PubChem BioAssay (NCI).
Values joined by “and” are separate entries in the source; they are usually repeats but may differ in a detail not shown here. Equal entries are not always repeated.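 Grown in 96-well plates, cells were treated for 48 hours with each compound at five concentrations. Insufficient inhibition: endpoint recorded as highest concentration tested. At the GI50, growth is halved. Definition used: TGI = concentration required for complete inhibition of growth.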

Key:
P388/ADR leukemia = assay: NCI tumour cell line growth inhibition, 48 h
P388 leukemia = assay: NCI tumour cell line growth inhibition, 48 h

SMILES	TGI (P388/ADR leukemia) [µM]	TGI (P388 leukemia) [µM]	GI50 (P388/ADR leukemia)	GI50 (P388 leukemia)
O=C1N[C@H]2[C@H](O)[C@H](O)[C@@H](O)[C@H](O)[C@@H]2c2cc3c(c(O)c21)OCO3	0.21	0.164	–	–
C[C@@](O)(/C=C/[C@H]1CC=CC(=O)O1)[C@@H](C[C@@H](O)\C=C/C=C\C=C\CO)OP(=O)(O)O	–	–	0.963 µM and 0.989 µM	1.41 µM and 0.567 µM
